Results on seven compounds are retold here after ChEMBL document CHEMBL1154233, “Minor furanocoumarins and coumarins in grapefruit peel oil as inhibitors of human cytochrome P450 3A4” (J Nat Prod, 2009).

Chain of Cytochrome P450 3A4 (P08684 whole entry): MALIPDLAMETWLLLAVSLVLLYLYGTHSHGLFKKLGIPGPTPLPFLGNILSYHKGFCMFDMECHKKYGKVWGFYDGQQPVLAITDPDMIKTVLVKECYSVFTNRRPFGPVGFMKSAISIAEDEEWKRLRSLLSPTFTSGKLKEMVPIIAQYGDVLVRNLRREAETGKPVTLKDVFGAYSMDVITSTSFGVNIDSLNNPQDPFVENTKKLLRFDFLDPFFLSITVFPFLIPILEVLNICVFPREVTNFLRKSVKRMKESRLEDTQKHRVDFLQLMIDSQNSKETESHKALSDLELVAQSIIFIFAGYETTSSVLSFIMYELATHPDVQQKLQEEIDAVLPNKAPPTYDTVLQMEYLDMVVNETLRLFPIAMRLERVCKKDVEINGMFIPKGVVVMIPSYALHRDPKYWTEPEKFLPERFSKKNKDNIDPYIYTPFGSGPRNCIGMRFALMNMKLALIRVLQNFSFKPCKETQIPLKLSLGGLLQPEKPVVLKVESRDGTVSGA

One data set concerns the target Cytochrome P450 3A4 (Homo sapiens, UniProt P08684). Description: Inhibition of CYP3A4 after 30 mins by fluorescence microplate reader assay. It is filed as ADME.
Conditions: not given; call rule not given here
As for `C/C(=C\COc1ccc2ccc(=O)oc2c1)CC[C@@H](O)C(C)(C)O` [R-(+)-MARMIN], the IC50 entry is recorded as “Not Active”.

On to `CC(C)=CCC/C(C)=C/COc1ccc2ccc(=O)oc2c1` [AURAPTENE], for which the IC50 result is “Not Active”.

On to `CCCCCCCCCC1O[C@H](CC/C(C)=C/COc2ccc3ccc(=O)oc3c2)C(C)(C)O1` (some centres not stated), for which the IC50 result is recorded as “Not Active”.

The same data set, now with this note: read-out: IC50.
For the compound `C/C(=C\COc1c2ccoc2cc2oc(=O)ccc12)CC[C@@H](O)C(C)(C)O`, the 50% inhibitory concentration (IC50) stood at 1580 nM.

Consider `CCCCCCCC1O[C@H](CC/C(C)=C/COc2c3ccoc3cc3oc(=O)ccc23)C(C)(C)O1` (some centres not stated), for which the IC50 was found to be 130 nM.

For the compound `CCCCCCCCCC1O[C@H](CC/C(C)=C/COc2c3ccoc3cc3oc(=O)ccc23)C(C)(C)O1` (some centres not stated), the IC50 was 270 nM.

`CC(C)=CCC/C(C)=C/COc1c2ccoc2cc2oc(=O)ccc12` [BERGAMOTTIN]: the 50% inhibitory concentration (IC50) came out at 2420 nM.

The IC50 is the concentration that inhibits the measured activity by half.
